Experimental data as given in patent US5902812A, “Pharmaceutical piperazine compounds” (Xenova Limited, priority 1994, dated 1999).
Like-named read-outs stand apart in the source and are kept apart here. Blank lines part the entries; values can stand above or below the molecule they belong to.

Target: PAI-1 (Homo sapiens, UniProt P05121)
Experiment: biochemical
[1] = 6.25 μM, read-out: Degree of inhibition in PAI chromogenic substrate assay

Sequence of PAI-1 (P05121 24-402): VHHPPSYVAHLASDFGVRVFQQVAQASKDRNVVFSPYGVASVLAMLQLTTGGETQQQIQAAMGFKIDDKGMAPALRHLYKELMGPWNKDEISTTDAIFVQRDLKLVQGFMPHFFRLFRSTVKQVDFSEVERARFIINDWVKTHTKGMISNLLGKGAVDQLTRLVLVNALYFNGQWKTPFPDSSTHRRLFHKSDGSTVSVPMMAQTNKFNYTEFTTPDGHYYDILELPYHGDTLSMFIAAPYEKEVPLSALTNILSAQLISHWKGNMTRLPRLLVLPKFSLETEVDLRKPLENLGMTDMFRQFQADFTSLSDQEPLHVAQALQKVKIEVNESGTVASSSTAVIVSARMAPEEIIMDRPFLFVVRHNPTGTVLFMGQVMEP
Method: In this assay, a compound is incubated with PAI-1 prior to addition to the tPA assay system. Inhibition of PAI-1 results in the production of plasmin from plasminogen. In turn, plasmin cleaves the chromogenic substrate S2251 (Kabi Vitrum) producing pNA (p-nitroaniline) which is detected spectrophotometrically at 405 nm (K. Nilsson et al, Fibrinolysis (1987) 1, 163-168).
Compounds of formula (A) were tested in a PAI chromogenic substrate assay. In the assay (K.Nilsson, Fibrinolysis (1987) 1, 163-168) each compound was incubated with PAI-1 prior to addition to the tPA assay system. […] In turn, the plasmin cleaved the chromogenic substrate S2251 (Kabi-Vitrum) producing pNA (p-nitroaniline) which was detected spectrophotometrically at 405 nm.

inhibition at 6.25 µM [1]: 0% | Degree of inhibition in PAI chromogenic substrate assay (100 μM): 37%
SMILES: CN(C)CCOc1ccccc1/C=c1\[nH]c(=O)/c(=C/c2ccccc2)[nH]c1=O [Compound 1979, (3Z,6Z)-Benzylidene-3-(2-(2-dimethylaminoethoxy)benzylidene)-2,5-piperazinedione]

Degree of inhibition in PAI chromogenic substrate assay (6.25 μM): 1% | Degree of inhibition in PAI chromogenic substrate assay (12.5 μM): 1% | Degree of inhibition in PAI chromogenic substrate assay (25 μM): 1% | Degree of inhibition in PAI chromogenic substrate assay (50 μM): 1% | Degree of inhibition in PAI chromogenic substrate assay (100 μM): 3%
SMILES: CN(C)CCOc1ccc(/C=c2\[nH]c(=O)/c(=C/c3ccccc3)[nH]c2=O)cc1OCCN(C)C [Compound 1949, (3Z,6Z)-3-Benzylidene-6-(3,4-di-(2-dimethylaminoethoxy)benzylidene)-2,5-piperazinedione]

SMILES: CN(C)CCCOc1ccc(/C=c2\[nH]c(=O)/c(=C/c3cc([N+](=O)[O-])cc([N+](=O)[O-])c3)[nH]c2=O)cc1 [Compound 5378, (3Z,6Z)-6-(4-(3-Dimethylaminopropoxy)benzylidene)-3-(3,5-dinitrobenzylidene)-2,5-piperazinedione]
IC50 (IC50, PAI chromogenic substrate assay): 20 µM | inhibition at 20 µM (read-out: Degree of inhibition in PAI chromogenic substrate assay): 50%

inhibition at 20 µM (20 μM (third part of Table 1), read-out: Degree of inhibition in PAI chromogenic substrate assay): 65% | inhibition at 100 µM (100 μM (third part of Table 1), read-out: Degree of inhibition in PAI chromogenic substrate assay): 68% | IC50 (PAI chromogenic substrate assay, read-out: IC50): 7 µM
SMILES: CN(C)CCCOc1ccc(/C=c2\[nH]c(=O)/c(=C/c3ccc(C(F)(F)F)cc3)[nH]c2=O)cc1 [Compound 5239, (3Z,6Z)-3-(4-(3-Dimethylaminopropoxy)benzylidene)-6-(4-trifluoromethylbenzylidene)-2,5-piperazinedione]

inhibition at 6.25 µM [1]: 0% | inhibition at 12.5 µM (12.5 μM, read-out: Degree of inhibition in PAI chromogenic substrate assay): 1% | inhibition at 25 µM (25 μM, read-out: Degree of inhibition in PAI chromogenic substrate assay): 1% | inhibition at 50 µM (50 μM, read-out: Degree of inhibition in PAI chromogenic substrate assay): 1% | inhibition at 100 µM (100 μM, read-out: Degree of inhibition in PAI chromogenic substrate assay): 1%
SMILES: CN(C)CCOc1cccc(/C=c2\[nH]c(=O)/c(=C/c3cccc(OCCN(C)C)c3)[nH]c2=O)c1 [Compound 1947, (3Z,6Z)-3,6-Di-(3-(2-dimethylaminoethoxy)benzylidene)-2,5-piperazinedione]
